Test results taken from publication PMC10600239, “Selective MCL-1 inhibitor ABBV-467 is efficacious in tumor models but is associated with cardiac troponin increases in patients” (Communications Medicine, 2023).
Values joined by “and” are separate entries in the source; they are usually repeats but may differ in a detail not shown here. Identical values can stand only once. Like-named read-outs stand apart in the source and are kept apart here.

How the values were obtained:
[1] = biological target: T1, BCL-W (Homo sapiens, UniProt Q92843); test: Time-resolved FRET binding assay
T1 sequence (Q92843 1-193): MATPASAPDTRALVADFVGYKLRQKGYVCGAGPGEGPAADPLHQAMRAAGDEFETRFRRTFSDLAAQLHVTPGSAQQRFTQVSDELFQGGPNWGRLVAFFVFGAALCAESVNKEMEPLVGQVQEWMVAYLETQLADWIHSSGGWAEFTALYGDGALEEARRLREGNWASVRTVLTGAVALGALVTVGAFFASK
Description: (§1) Binding affinities for MCL-1, BCL-2, BCL-XL, BCL-W, and BCL2-A1 were determined using a time-resolved fluorescence resonance energy transfer (FRET) assay. Test compounds were serially diluted in DMSO starting at […] (20× starting concentration; 100% DMSO followed by a 1:10 dilution of the compound DMSO plate into assay buffer); 10 µL of the compound in 10% DMSO was then transferred into a 384-well plate (low-volume Corning #3673 assay plate). Glutathione S-transferase (GST)-tagged recombinant BCL-2, BCL-XL, MCL-1, BCL-W, or BCL2-A1 protein (1 nM each) were mixed with 100 nM Oregon Green™-labeled f-BAK peptide probe and 1 nM Tb-labeled anti-GST antibody were mixed. Then 10 µL of a 2× protein/probe/antibody mix was added to each well of increasing concentrations of test compound in assay buffer (20 mM potassium phosphate, pH 7.6, 50 mM NaCl, 1 mM ethylenediaminetetraacetic acid disodium salt dihydrate, 0.05% pluronic acid F-68, 1 mM DL-dithiothreitol) at room temperature (final concentrations listed in Supplementary Table S2). The samples were then mixed on a shaker for 1 min and incubated for an additional 1 h at room temperature. For each assay plate, a probe/antibody and protein/antibody/probe mixture were included as a negative and a positive control, respectively. Fluorescence was measured on the EnVision™ (Perkin Elmer) using a 340/35-nm excitation filter and 520/525- (F-Bak) and 495/510-nm (Tb-labeled anti-glutathione S-transferase [GST] antibody) emission filters. Dissociation constants were determined using Wang’s equation[35]. The time-resolved FRET assay can be performed in the presence of varying concentrations of human serum to determine apparent half-maximal inhibitory concentration after serum protein binding.

[2] = biological target: BCL-XL (Homo sapiens, UniProt Q07817); test: Time-resolved FRET binding assay
Sequence of BCL-XL (Q07817 whole entry): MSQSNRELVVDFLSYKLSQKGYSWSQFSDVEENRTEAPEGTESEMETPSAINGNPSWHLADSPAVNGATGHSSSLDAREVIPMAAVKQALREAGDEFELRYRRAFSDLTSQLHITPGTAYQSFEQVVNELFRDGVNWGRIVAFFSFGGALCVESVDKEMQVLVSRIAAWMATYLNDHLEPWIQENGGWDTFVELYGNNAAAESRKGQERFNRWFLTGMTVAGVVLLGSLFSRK
Description: as §1

[3] = biological target: T2, BCL2-A1 (Homo sapiens, UniProt Q16548); test: Time-resolved FRET binding assay; settings: TR-FRET, individual determinations; read-out: Individual Ki, BCL2-A1
T2 sequence (Q16548 1-175): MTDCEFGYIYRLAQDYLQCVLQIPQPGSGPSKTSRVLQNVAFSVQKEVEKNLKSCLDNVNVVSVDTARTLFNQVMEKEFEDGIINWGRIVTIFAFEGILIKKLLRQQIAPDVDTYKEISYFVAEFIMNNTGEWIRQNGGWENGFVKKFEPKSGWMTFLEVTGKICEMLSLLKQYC
Description: as §1

[4] = biological target: BCL-2 (Homo sapiens, UniProt P10415); test: Time-resolved FRET binding assay; settings: TR-FRET
Sequence of BCL-2 (P10415 whole entry): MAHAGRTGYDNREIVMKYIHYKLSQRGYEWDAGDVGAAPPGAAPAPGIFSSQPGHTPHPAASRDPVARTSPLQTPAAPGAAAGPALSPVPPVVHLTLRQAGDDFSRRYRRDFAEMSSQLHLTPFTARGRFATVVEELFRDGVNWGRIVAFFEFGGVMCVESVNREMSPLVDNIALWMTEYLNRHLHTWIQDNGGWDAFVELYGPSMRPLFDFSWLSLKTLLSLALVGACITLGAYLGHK
Description: as §1

[5] = biological target: T3, monkey MCL1 (Macaca mulatta, UniProt F7HUE9); test: TR-FRET binding assay, MCL-1 orthologs; design: species or system Monkey Macaca sp.
T3 construct: rhesus monkey (iso4, NM_001 1089 3 7, AA 171-327); made in house; host or cells: E. coli BL21(DE3)-T1R
T3 sequence (F7HUE9 171-327): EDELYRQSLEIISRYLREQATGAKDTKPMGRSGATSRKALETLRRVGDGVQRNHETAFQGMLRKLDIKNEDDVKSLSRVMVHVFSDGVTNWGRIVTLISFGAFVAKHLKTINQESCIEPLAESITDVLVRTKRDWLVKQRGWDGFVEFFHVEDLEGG
Description: as §1, with “The samples were then mixed on a shaker for 1 min and incubated for an additional 1 h at room temperature. For each assay plate, a probe/antibody and protein/antibody/probe mixture were included as a negative and a positive control, respectively.” left out, “The time-resolved FRET assay can be performed in the presence of varying concentrations of human serum to determine apparent half-maximal inhibitory concentration after serum protein binding.” left out
Amino acid sequence homology determined with NCBI BLAST (http://blast.ncbi.nlm.nih.gov). […]

Cc1c(Cl)c2c(Cl)c(C)c1-c1c(-c3ccc(F)cc3)sc3ncnc(c13)O[C@@H](C(=O)O)Cc1cc(ccc1OCc1ccnc(-c3ccc(OC[C@H]4COCCO4)cc3)n1)OC[C@@H](CN1CCN(C)CC1)O2 [ABBV-467]
Ki ([1]; TR-FRET, arithmetic mean, read-out: Arithmetic Mean Ki, BCL-W): > 247 nM | Ki ([1]; TR-FRET, individual determinations, read-out: Individual Ki, BCL-W): > 247 nM | Ki ([1]; read-out: TR-FRET, Ki, nM BCL-W): > 247 nM | Ki ([2]; TR-FRET, arithmetic mean, read-out: Arithmetic Mean Ki, BCL-XL): > 376 nM | Ki ([2]; TR-FRET, individual determinations, read-out: Individual Ki, BCL-XL): > 376 nM | Ki ([2]; read-out: TR-FRET, Ki, nM BCL-XL): > 376 nM | Ki [3]: 402 nM and > 468 nM (2×) | Ki ([4]; arithmetic mean, read-out: Arithmetic Mean Ki, BCL-2): > 642 nM | Ki ([4]; individual determinations, read-out: Individual Ki, BCL-2): > 642 nM | Ki [5]: < 0.1 nM
